Test results: patent US11260049B2, “TRPV4 antagonists” (GlaxoSmithKline Intellectual Property (No. 2) Limited, priority 2016, dated 2022)

molecular target: human TRPV4 (Homo sapiens (Human), UniProt Q9HBA0); test: FLIPR assay for hTRPV4 expressed in BHK cells; format: cell-based; settings: inhibition of Agonist Compound (EC80)-induced calcium signal; BHK/AC9 cells expressing human TRPV4; read-out: IC50
Method in brief: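 BHK/AC9 cells transduced with BacMam human TRPV4 (MOI 78), 15,000 cells/well, cultured 24 h at 37 °C. Loaded with 2 μM Fluo-4 AM and 500 μM Brilliant Black in HBSS for 1–1.5 h at room temperature in the dark. Intracellular calcium influx monitored by fluorescence.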

Sequence of human TRPV4 (Q9HBA0 whole entry): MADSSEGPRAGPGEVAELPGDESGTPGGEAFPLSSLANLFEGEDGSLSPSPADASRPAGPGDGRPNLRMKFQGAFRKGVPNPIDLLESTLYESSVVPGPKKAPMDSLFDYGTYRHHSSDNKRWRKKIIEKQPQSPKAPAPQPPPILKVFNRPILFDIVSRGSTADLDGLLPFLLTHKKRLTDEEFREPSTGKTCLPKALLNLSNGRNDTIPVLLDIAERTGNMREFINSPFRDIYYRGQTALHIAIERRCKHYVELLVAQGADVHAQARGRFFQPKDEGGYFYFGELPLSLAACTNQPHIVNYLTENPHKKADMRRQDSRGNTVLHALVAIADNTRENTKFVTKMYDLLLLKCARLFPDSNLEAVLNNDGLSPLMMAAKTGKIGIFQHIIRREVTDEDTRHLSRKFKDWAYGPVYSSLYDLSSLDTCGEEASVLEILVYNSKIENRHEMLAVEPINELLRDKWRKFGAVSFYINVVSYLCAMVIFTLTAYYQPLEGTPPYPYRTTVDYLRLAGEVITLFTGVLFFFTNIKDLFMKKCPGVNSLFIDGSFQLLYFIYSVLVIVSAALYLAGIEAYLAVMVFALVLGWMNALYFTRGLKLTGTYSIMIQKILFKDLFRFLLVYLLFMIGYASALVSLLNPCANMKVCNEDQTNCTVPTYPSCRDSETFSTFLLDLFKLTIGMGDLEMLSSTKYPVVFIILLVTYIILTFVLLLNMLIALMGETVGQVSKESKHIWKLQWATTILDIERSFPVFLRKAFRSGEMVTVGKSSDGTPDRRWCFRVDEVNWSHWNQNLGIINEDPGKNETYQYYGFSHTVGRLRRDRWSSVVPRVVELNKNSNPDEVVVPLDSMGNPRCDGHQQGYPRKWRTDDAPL

| Structure (SMILES) | IC50 |
| --- | --- |
| O=S(=O)(c1ccc(Cl)c(F)c1)[C@H]1CN(S(=O)(=O)c2ccc(Cl)cc2Cl)C[C@@]1(O)CO [Example 88, (3R,4S)-4-((4-chloro-3-fluorophenyl)sulfonyl)-1-((2,4-dichlorophenyl)sulfonyl)-3-(hydroxymethyl)pyrrolidin-3-ol] | 0.0001 to 0.01 µM |
| COc1cc(Cl)ccc1S(=O)(=O)N1C[C@H](S(=O)(=O)c2ccc(C#N)cc2)[C@](O)(CO)C1 [Example 51, 4-(((3S,4R)-1-((4-chloro-2-methoxyphenyl)sulfonyl)-4-hydroxy-4-(hydroxymethyl)pyrrolidin-3-yl)sulfonyl)benzonitrile] | 0.01 to 0.1 µM |
| N#Cc1ncccc1S(=O)(=O)N1C[C@H](S(=O)(=O)c2ccc(Cl)cc2)[C@](O)(CO)C1 [Example 111, 3-(((3R,4S)-4-((4-chlorophenyl)sulfonyl)-3-hydroxy-3-(hydroxymethyl)pyrrolidin-1-yl)sulfonyl)picolinonitrile] | 0.01 to 0.1 µM |
| N#Cc1ccc(S(=O)(=O)[C@H]2CN(S(=O)(=O)c3ccc(Br)cc3C(F)(F)F)C[C@@]2(O)CO)cc1 [Example 30, 4-(((3S,4R)-1-((4-bromo-2-(trifluoromethyl)phenyl)sulfonyl)-4-hydroxy-4-(hydroxymethyl)pyrrolidin-3-yl)sulfonyl)benzonitrile] | 0.0001 to 0.01 µM |
| N#Cc1ccc(S(=O)(=O)N2C[C@H](S(=O)(=O)c3ccc(Cl)cc3)[C@](O)(CO)C2)c(Cl)c1 [Example 2, 3-chloro-4-(((3R,4S)-4-((4-chlorophenyl)sulfonyl)-3-hydroxy-3-(hydroxymethyl)pyrrolidin-1-yl)sulfonyl)benzonitrile] | 0.0001 to 0.01 µM |
| N#Cc1ccc(S(=O)(=O)N2C[C@H](S(=O)(=O)c3cnc(C(F)(F)F)nc3)[C@](O)(CO)C2)c(Cl)c1 [Example 112, 3-chloro-4-(((3R,4S)-3-hydroxy-3-(hydroxymethyl)-4-((2-(trifluoromethyl)pyrimidin-5-yl)sulfonyl)pyrrolidin-1-yl)sulfonyl)benzonitrile] | 0.01 to 0.1 µM |
| COc1ccc(S(=O)(=O)N2C[C@H](S(=O)(=O)c3ccc(C#N)cc3)[C@](O)(CO)C2)c(Br)c1 [Example 60, 4-(((3S,4R)-1-((2-bromo-4-methoxyphenyl)sulfonyl)-4-hydroxy-4-(hydroxymethyl)pyrrolidin-3-yl)sulfonyl)benzonitrile] | 0.01 to 0.1 µM |
| N#Cc1ccc(S(=O)(=O)[C@H]2CN(S(=O)(=O)c3ccc(Cl)cc3Cl)C[C@@]2(O)CO)cc1 [Example 82, 4-(((3S,4R)-1-((2,4-dichlorophenyl)sulfonyl)-4-hydroxy-4-(hydroxymethyl)pyrrolidin-3-yl)sulfonyl)benzonitrile] | 0.0001 to 0.01 µM |
| N#Cc1ccc(S(=O)(=O)[C@H]2CN(S(=O)(=O)c3ccccc3Cl)C[C@@]2(O)CO)cc1F [Example 11, 4-(((3S,4R)-1-((2-chlorophenyl)sulfonyl)-4-hydroxy-4-(hydroxymethyl)pyrrolidin-3-yl)sulfonyl)-2-fluorobenzonitrile] | 0.01 to 0.1 µM |
| Cc1cc(C(F)(F)F)ccc1S(=O)(=O)N1C[C@H](S(=O)(=O)c2ccc(C#N)c(F)c2)[C@](O)(CO)C1 [Example 71, 2-fluoro-4-(((3S,4R)-4-hydroxy-4-(hydroxymethyl)-1-((2-methyl-4-(trifluoromethyl)phenyl)sulfonyl)pyrrolidin-3-yl)sulfonyl)benzonitrile] | 0.01 to 0.1 µM |
| N#Cc1ccc(S(=O)(=O)N2C[C@H](S(=O)(=O)c3ccc(C(F)(F)F)cc3)[C@](O)(CO)C2)c(OC2CC2)c1 [Example 57, 3-cyclopropoxy-4-(((3R,4S)-3-hydroxy-3-(hydroxymethyl)-4-((4-(trifluoromethyl)phenyl)sulfonyl)pyrrolidin-1-yl)sulfonyl)benzonitrile] | 0.01 to 0.1 µM |
| N#Cc1cc(C(F)(F)F)ccc1S(=O)(=O)N1C[C@H](S(=O)(=O)c2ccc(F)c(F)c2)[C@](O)(CO)C1 [Example 93, 2-(((3R,4S)-4-((3,4-difluorophenyl)sulfonyl)-3-hydroxy-3-(hydroxymethyl)pyrrolidin-1-yl)sulfonyl)-5-(trifluoromethyl)benzonitrile] | 0.01 to 0.1 µM |
| N#Cc1ccc(S(=O)(=O)[C@H]2CN(S(=O)(=O)c3ccc(Cl)cc3Br)C[C@@]2(O)CO)cc1 [Example 59, 4-(((3S,4R)-1-((2-bromo-4-chlorophenyl)sulfonyl)-4-hydroxy-4-(hydroxymethyl)pyrrolidin-3-yl)sulfonyl)benzonitrile] | 0.0001 to 0.01 µM |
| N#Cc1ccc(S(=O)(=O)N2C[C@H](S(=O)(=O)c3ccc(C(F)(F)F)cc3)[C@](O)(CO)C2)c(C(F)F)c1 [Example 55, 3-(difluoromethyl)-4-(((3R,4S)-3-hydroxy-3-(hydroxymethyl)-4-((4-(trifluoromethyl)phenyl)sulfonyl)pyrrolidin-1-yl)sulfonyl)benzonitrile] | 0.0001 to 0.01 µM |
| N#Cc1cc(C(F)(F)F)ccc1S(=O)(=O)N1C[C@H](S(=O)(=O)c2ccc(F)c(F)c2)[C@@](O)(CO)C1 [Example 77, 2-(((3S,4S)-4-((3,4-difluorophenyl)sulfonyl)-3-hydroxy-3-(hydroxymethyl)pyrrolidin-1-yl)sulfonyl)-5-(trifluoromethyl)benzonitrile] | 0.01 to 0.1 µM |
| CCCc1ccc(S(=O)(=O)[C@H]2CN(S(=O)(=O)c3ccc(C#N)cc3Cl)C[C@@]2(O)CO)cc1 [Example 106, 3-chloro-4-(((3R,4S)-3-hydroxy-3-(hydroxymethyl)-4-((4-propylphenyl)sulfonyl)pyrrolidin-1-yl)sulfonyl)benzonitrile] | 0.01 to 0.1 µM |
| N#Cc1ccc(S(=O)(=O)[C@H]2CN(S(=O)(=O)c3ccccc3C(F)(F)F)C[C@@]2(O)CO)cc1 [Example 41, 4-(((3S,4R)-4-hydroxy-4-(hydroxymethyl)-1-((2-(trifluoromethyl)phenyl)sulfonyl)pyrrolidin-3-yl)sulfonyl)benzonitrile] | 0.01 to 0.1 µM |
| N#Cc1ccc(S(=O)(=O)[C@H]2CN(S(=O)(=O)c3ccc(C#N)cc3Cl)C[C@@]2(O)CO)cc1 [Example 45, 3-chloro-4-(((3R,4S)-4-((4-cyanophenyl)sulfonyl)-3-hydroxy-3-(hydroxymethyl)pyrrolidin-1-yl)sulfonyl)benzonitrile] | 0.0001 to 0.01 µM |
| Cc1cc(S(=O)(=O)[C@H]2CN(S(=O)(=O)c3ccc(C(F)(F)F)cc3Cl)C[C@@]2(O)CO)ccc1C#N [Example 100, 4-(((3S,4R)-1-((2-chloro-4-(trifluoromethyl)phenyl)sulfonyl)-4-hydroxy-4-(hydroxymethyl)pyrrolidin-3-yl)sulfonyl)-2-methylbenzonitrile] | 0.01 to 0.1 µM |
| N#Cc1ccc(S(=O)(=O)N2C[C@H](S(=O)(=O)c3ccc(Cl)cc3)[C@](O)(CO)C2)c(OC2CC2)c1 [Example 50, 4-(((3R,4S)-4-((4-chlorophenyl)sulfonyl)-3-hydroxy-3-(hydroxymethyl)pyrrolidin-1-yl)sulfonyl)-3-cyclopropoxybenzonitrile] | 0.01 to 0.1 µM |
| N#Cc1ccc(S(=O)(=O)[C@H]2CN(S(=O)(=O)c3ccc(OC(F)(F)F)cc3Cl)C[C@@]2(O)CO)cc1F [Example 15, 4-(((3S,4R)-1-((2-chloro-4-(trifluoromethoxy)phenyl)sulfonyl)-4-hydroxy-4-(hydroxymethyl)pyrrolidin-3-yl)sulfonyl)-2-fluorobenzonitrile] | 0.01 to 0.1 µM |
| N#Cc1ccc(S(=O)(=O)[C@H]2CN(S(=O)(=O)c3ccc(C(F)(F)F)cc3Br)C[C@@]2(O)CO)cc1 [Example 32, 4-(((3S,4R)-1-((2-bromo-4-(trifluoromethyl)phenyl)sulfonyl)-4-hydroxy-4-(hydroxymethyl)pyrrolidin-3-yl)sulfonyl)benzonitrile] | 0.01 to 0.1 µM |
